Earlier results as cited in patent US10744098B2, “Spray-dried solid-in-oil-in-water dispersions for inhalation of active pharmaceutical ingredients” (Novartis AG, priority 2014, dated 2020).

Target: β2-adrenoceptor (Homo sapiens, UniProt P07550)
Sequence (P07550 whole entry, species assumed): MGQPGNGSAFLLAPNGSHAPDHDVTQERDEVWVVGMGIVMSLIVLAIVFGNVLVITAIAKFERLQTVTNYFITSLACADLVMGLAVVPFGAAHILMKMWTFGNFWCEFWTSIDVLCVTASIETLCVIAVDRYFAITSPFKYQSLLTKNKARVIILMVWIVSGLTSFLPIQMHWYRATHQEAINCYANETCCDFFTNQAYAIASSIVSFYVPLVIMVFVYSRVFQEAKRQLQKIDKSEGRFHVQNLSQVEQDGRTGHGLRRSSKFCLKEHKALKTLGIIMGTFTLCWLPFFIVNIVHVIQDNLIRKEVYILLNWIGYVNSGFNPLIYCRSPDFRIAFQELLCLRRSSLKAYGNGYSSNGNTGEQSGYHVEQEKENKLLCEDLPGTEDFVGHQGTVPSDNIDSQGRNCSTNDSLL

## CCc1cc2c(cc1CC)CC(NC[C@H](O)c1ccc(O)c3[nH]c(=O)ccc13)C2 [indacaterol, (R)-5-[2-(5,6-diethyl-indan-2-ylamino)-1-hydroxyethyl]-8-hydroxy-1H-quinolin-2-one]
  duration of action: over 24 hours
  onset of action: about 10 minutes
